Data on three molecules can be found in US5773449A, “Thioquinolone compounds which have useful pharmaceutical activity” (Zenyaku Kogyo Kabushiki Kaisha, priority 1994, dated 1998).

As a reminder, the MIC is the lowest concentration found to suppress growth.

Test [1] has as its system peptic ulcer. Conditions: H2-blocker / proton-pump inhibitor; cited from earlier work.
Test [2] deals with Helicobacter pylori standard strain ATCC 43526 (NCTC 11916). Briefly: Antibacterial test 1: agar plate dilution method (anaerobic MIC method) against Hp. The format is cell-based. Conditions: 72 h; Helicobacter pylori ATCC 43526 (NCTC 11916); brucella agar + 7% horse blood, microaerobic, 37° C., 3 days. As for the experimental part: Antibacterial test against Hp was performed in substantial accordance with agar plate dilution method (anaerobic MIC method) based on Standard method of The Japan Society of Chemotherapy to determine minimum inhibitory concentration (MIC) of the respective test compounds. The respective test compounds were sequentially dissolved in dimethyl sulfoxide (DMSO) and serially diluted twofold. […] Strain used for inoculation was Helicobacter pylori standard strain ATCC 43526 (NCTC 11916). For pre-culturing of bacteria to be inoculated, the above-mentioned strain freezingly conserved at -135° C. was thawed in a warm bath (40° C.), applied on a brucella agar medium containing 7% horse blood free from fibrin, and microaerobically cultured in a jar for anaerobic bacteria at 37° C. for 3 days. The solution of bacteria to be inoculated was prepared by collecting colonies grown on the culture medium and suspending the same in the brucella broth.

Test [3] has as its system B.subtilis PCI 219. Kind of test: Antibacterial Test 2: agar plate dilution method (aerobic MIC method), B.subtilis. The format is cell-based. The settings on record: Bacillus subtilis, PCI219, sensitive-disk agar medium-N. As for the experimental part:
(§1) Then, tested were antibacterial activities of the typical compounds of the present invention against gram-positive and-negative bacteria other than Hp. MICs of the typical compounds of the present invention were determined in substantial accordance with agar plate dilution method (aerobic MIC method) based on Standard method of The Japan Society of Chemotherapy.
(§2) The respective test compound were dissolved in dimethyl sulfoxide (DMSO) and serially diluted twofold. These diluted solutions of the compounds were respectively added to sensitive-disk agar medium-N (manufactured by NISSUI SEIYAKU) to prepare agar plates for determination with concentration of 0.05-100 μg/ml.
(§3) The below-mentioned strains freezingly conserved at -135° C. were thawed in a warm bath (40° C.), cultured in a sensitivity-determining bouillon at 37° C. for 18-20 hours, and then diluted with the above-mentioned medium to prepare about 1.0×10^6CFU/ml of bacterial solution.
(§4) Inoculation was made by 5 μl by multi-inoculator (manufactured by SAKUMA SEISAKUSHO). Culturing was made under the same conditions as those of the pre-culturing and the MIC (unit: μg/ml) was determined by observing whether the bacteria grew or not.

Test [4] concerns M.luteus ATCC 9341. Briefly: Antibacterial Test 2: agar plate dilution method (aerobic MIC method), M.luteus. The class given is cell-based. The settings on record: Micrococcus luteus, ATCC9341, sensitive-disk agar medium-N. On the procedure:
as §1, §2, §3, §4

Test [5] deals with P.aeruginosa IFO 3445. Kind of test: Antibacterial Test 2: agar plate dilution method (aerobic MIC method), P.aeruginosa. The format is cell-based. Conditions: Pseudomonas aeruginosa, IFO3445, sensitive-disk agar medium-N. As for the experimental part:
as §1, §2, §3, §4

Test [6] deals with E.coli NIHJ JC-2. Kind of test: Antibacterial Test 2: agar plate dilution method (aerobic MIC method), E.coli. The format is cell-based. Conditions: Escherichia coli, NIHJJC2, sensitive-disk agar medium-N. As for the experimental part:
as §1, §2, §3, §4

Test [7] concerns S.aureus FDA 209P. Briefly: Antibacterial Test 2: agar plate dilution method (aerobic MIC method), S.aureus. The format is cell-based. Conditions: Staphylococcus aureus, FDA209P, sensitive-disk agar medium-N. As for the experimental part:
as §1, §2, §3, §4

Test [8] concerns E.faecalis RIMD 3336001. Briefly: Antibacterial Test 2: agar plate dilution method (aerobic MIC method), E.faecalis. The class given is cell-based. The settings on record: Enterococcus faecalis, RIMD3336001, sensitive-disk agar medium-N. As for the experimental part:
as §1, §2, §3, §4

Test [9] deals with K.pneumoniae PCI 602. Kind of test: Antibacterial Test 2: agar plate dilution method (aerobic MIC method), K.pneumoniae. The format is cell-based. Conditions: Klebsiella pneumoniae, PCI602, sensitive-disk agar medium-N. On the procedure:
as §1, §2, §3, §4

For the molecule `CN/C(=N/CCSCc1nc[nH]c1C)NC#N` [cimetidine], in [1], the cure rate is 80-90%.

As for `Cc1c(OCC(F)(F)F)ccnc1C[S+]([O-])c1nc2ccccc2[nH]1` (stereo not shown) [lansoprazole, reference compound], the MIC in [2] is 12.5 µg/mL; in test [3], above 100 µg/mL; in test [4], above 100 µg/mL; in test [5], above 100 µg/mL; in test [6], above 100 µg/mL; in [7], above 100 µg/mL. Moreover, the MIC in [8] and in test [9] was above 100 µg/mL in each case.

With `COc1ccc2[nH]c([S+]([O-])Cc3ncc(C)c(OC)c3C)nc2c1` (stereo not shown) [omeprazole], the cure rate in [1] was 80-90%.
